{"source": "patent US20070128217A1", "about": "(priority 2003, published 2007)", "key": {"[1]": {"test_system": "antibodies in sera from SARS patients (sera 1a, 1b, 2, 6, 37, 62, London, SARS-yellow, SARS-green)", "type": "binding, human", "parameters": "Binding of serum 6 to linear peptides of protein X1 of SARS-CoV Urbani / Binding of serum 37 to linear peptides of protein X1 of SARS-CoV Urbani / Binding of serum 6 to looped/cyclic peptide (PEPSCAN-ELISA) / Binding of serum 37 to looped/cyclic peptide (PEPSCAN-ELISA) / Binding of serum 37 to looped/cyclic peptides of protein X1 of SARS-CoV Urbani / Binding of serum 6 to linear peptides of protein X2 / Binding of serum 37 to linear peptides of protein X2 / Binding of serum 37 to looped/cyclic peptides of protein X2 of SARS-CoV Urbani / Binding of serum 6 to linear peptides of protein M of SARS-CoV Urbani / Binding of serum 37 to linear peptides of protein M of SARS-CoV Urbani / Binding of serum 6 to looped/cyclic peptides of protein M of SARS-CoV Urbani / Binding of serum 37 to looped/cyclic peptides of protein M of SARS-CoV Urbani / Binding of serum 6 to linear peptides of protein X3 of SARS-CoV Urbani / Binding of serum 37 to linear peptides of protein X3 of SARS-CoV Urbani / Binding of serum 37 to looped/cyclic peptides of protein X3 of SARS-CoV Urbani / Binding of serum 6 to linear peptides of protein X4 of SARS-CoV Urbani / Binding of serum 37 to linear peptides of protein X4 of SARS-CoV Urbani / Binding of serum 37 to looped/cyclic peptides of protein X4 of SARS-CoV Urbani / Binding of serum 6 to linear peptides of protein X5 of SARS-CoV Urbani / Binding of serum 37 to linear peptides of protein X5 of SARS-CoV Urbani / Binding of serum 37 to looped/cyclic peptides of protein X5 of SARS-CoV Urbani / Binding of serum 6 to linear peptides of protein N of SARS-CoV Urbani / Binding of serum 37 to linear peptides of protein N of SARS-CoV Urbani / Binding of serum 6 to linear peptide (PEPSCAN-ELISA) / Binding of serum 1a to looped/cyclic peptides of protein N of SARS-CoV Urbani / Binding of serum 1b to looped/cyclic peptides of protein N of SARS-CoV Urbani / Binding of serum 2 to looped/cyclic peptides of protein N of SARS-CoV Urbani / Binding of serum 6 to looped/cyclic peptides of protein N of SARS-CoV Urbani / Binding of serum 37 to looped/cyclic peptides of protein N of SARS-CoV Urbani / Binding of serum 62 to looped/cyclic peptides of protein N of SARS-CoV Urbani / Binding of serum London to looped/cyclic peptides of protein N of SARS-CoV Urbani / Binding of serum SARS-green to looped/cyclic peptides of protein N of SARS-CoV Urbani: unit not given here"}, "[2]": {"test_system": "control sera (pooled serum of ten healthy LUMC hospital workers; commercial negative donor pooled serum from the Dutch bloodbank)", "type": "binding, human", "parameters": "Binding of Control serum LUMC to linear peptides / Binding of Control serum Blood-bank to linear peptides / Binding of Control serum LUMC to looped peptides / Binding of Control Serum Blood-Bank to Looped peptides / Binding of Control serum LUMC to linear peptides of the protein M of SARS-CoV Urbani / Binding of Control serum Blood-bank to linear peptides of the protein M of SARS-CoV Urbani / Binding of Control serum LUMC to looped peptides of the protein M of SARS-CoV Urbani / Binding of Control Serum Blood-Bank to Looped peptides of the protein M of SARS-CoV Urbani: unit not given here"}, "[3]": {"test_system": "rabbit serum obtained by immunizing a rabbit with the SARS-CoV strain Frankfurt 1", "type": "binding", "parameters": "Binding of a rabbit serum to linear peptides / Binding of a rabbit serum to looped peptides / Rabbit serum linear peptides / Rabbit serum looped peptides / Binding of a rabbit serum to linear peptides of protein N of SARS-CoV Urbani (Rabbit serum linear peptides) / Binding of a rabbit serum to looped/cyclic peptides of protein N of SARS-CoV Urbani (Rabbit serum looped peptides): unit not given here"}}}
{"sequence": "IENATFFIFNKLVKD", "values": [{"measurement": "Binding of serum 1a to linear peptides of protein X1 of SARS-CoV Urbani", "setting": "[1]", "value": 0.6}, {"measurement": "Binding of serum 1a to looped/cyclic peptides of protein X1 of SARS-CoV Urbani", "setting": "[1]", "value": 0.5}, {"measurement": "Binding of serum 1b to linear peptides of protein X1 of SARS-CoV Urbani", "setting": "[1]", "value": 0.5}, {"measurement": "Binding of serum 1b to looped/cyclic peptides of protein X1 of SARS-CoV Urbani", "setting": "[1]", "value": 0.4}, {"measurement": "Binding of serum 2 to linear peptides of protein X1 of SARS-CoV Urbani", "setting": "[1]", "value": 0.5}, {"measurement": "Binding of serum 2 to looped/cyclic peptides of protein X1 of SARS-CoV Urbani", "setting": "[1]", "value": 0.4}, {"measurement": "Binding of serum 6 to linear peptides of protein X1 of SARS-CoV Urbani", "setting": "[1]", "value": 0.3}, {"measurement": "Binding of serum 6 to looped/cyclic peptides of protein X1 of SARS-CoV Urbani", "setting": "[1]", "value": 0.2}, {"measurement": "Binding of serum 37 to linear peptides of protein X1 of SARS-CoV Urbani", "setting": "[1]", "value": 0.5}, {"measurement": "Binding of serum 37 to looped/cyclic peptides of protein X1 of SARS-CoV Urbani", "setting": "[1]", "value": 0.5}, {"measurement": "Binding of serum 62 to linear peptides of protein X1 of SARS-CoV Urbani", "setting": "[1]", "value": 0.5}, {"measurement": "Binding of serum 62 to looped/cyclic peptides of protein X1 of SARS-CoV Urbani", "setting": "[1]", "value": 0.5}, {"measurement": "Binding of serum London to linear peptides of protein X1 of SARS-CoV Urbani", "setting": "[1]", "value": 0.2}, {"measurement": "Binding of serum London to looped/cyclic peptides of protein X1 of SARS-CoV Urbani", "setting": "[1]", "value": 0.2}, {"measurement": "Binding of serum SARS-green to linear peptides of protein X1 of SARS-CoV Urbani", "setting": "[1]", "value": 0.2}, {"measurement": "Binding of serum SARS-green to looped/cyclic peptides of protein X1 of SARS-CoV Urbani", "setting": "[1]", "value": 0.1}, {"measurement": "Binding of serum SARS-yellow to linear peptides of protein X1 of SARS-CoV Urbani", "setting": "[1]", "value": 0.4}, {"measurement": "Binding of serum SARS-yellow to looped/cyclic peptides of protein X1 of SARS-CoV Urbani", "setting": "[1]", "value": 0.3}, {"measurement": "Binding of Control Serum Blood-Bank to Looped peptides", "setting": "[2]", "value": 0.5}, {"measurement": "Binding of Control serum Blood-bank to linear peptides", "setting": "[2]", "value": 0.4}, {"measurement": "Binding of Control serum LUMC to linear peptides", "setting": "[2]", "value": 0.3}, {"measurement": "Binding of Control serum LUMC to looped peptides", "setting": "[2]", "value": 0.5}, {"measurement": "Binding of a rabbit serum to linear peptides", "setting": "[3]", "value": 0.1}, {"measurement": "Binding of a rabbit serum to looped peptides", "setting": "[3]", "value": 0.5}]}
{"sequence": "EVQQELYSPLFLIVA", "values": [{"measurement": "Binding of serum 1a to linear peptides of protein X4 of SARS-CoV Urbani", "setting": "[1]", "value": 0.7}, {"measurement": "Binding of serum 1a to looped/cyclic peptides of protein X4 of SARS-CoV Urbani", "setting": "[1]", "value": 0.7}, {"measurement": "Binding of serum 1b to linear peptides of protein X4 of SARS-CoV Urbani", "setting": "[1]", "value": 0.6}, {"measurement": "Binding of serum 1b to looped/cyclic peptides of protein X4 of SARS-CoV Urbani", "setting": "[1]", "value": 0.6}, {"measurement": "Binding of serum 2 to linear peptides of protein X4 of SARS-CoV Urbani", "setting": "[1]", "value": 0.4}, {"measurement": "Binding of serum 2 to looped/cyclic peptides of protein X4 of SARS-CoV Urbani", "setting": "[1]", "value": 0.6}, {"measurement": "Binding of serum 6 to linear peptides of protein X4 of SARS-CoV Urbani", "setting": "[1]", "value": 0.9}, {"measurement": "Binding of serum 6 to looped/cyclic peptides of protein X4 of SARS-CoV Urbani", "setting": "[1]", "value": 0.5}, {"measurement": "Binding of serum 37 to linear peptides of protein X4 of SARS-CoV Urbani", "setting": "[1]", "value": 0.8}, {"measurement": "Binding of serum 37 to looped/cyclic peptides of protein X4 of SARS-CoV Urbani", "setting": "[1]", "value": 0.7}, {"measurement": "Binding of serum 62 to linear peptides of protein X4 of SARS-CoV Urbani", "setting": "[1]", "value": 0.7}, {"measurement": "Binding of serum 62 to looped/cyclic peptides of protein X4 of SARS-CoV Urbani", "setting": "[1]", "value": 0.6}, {"measurement": "Binding of serum London to linear peptides of protein X4 of SARS-CoV Urbani", "setting": "[1]", "value": 1.0}, {"measurement": "Binding of serum London to looped/cyclic peptides of protein X4 of SARS-CoV Urbani", "setting": "[1]", "value": 0.3}, {"measurement": "Binding of serum SARS-green to linear peptides of protein X4 of SARS-CoV Urbani", "setting": "[1]", "value": 0.8}, {"measurement": "Binding of serum SARS-green to looped/cyclic peptides of protein X4 of SARS-CoV Urbani", "setting": "[1]", "value": 0.3}, {"measurement": "Binding of serum SARS-yellow to linear peptides of protein X4 of SARS-CoV Urbani", "setting": "[1]", "value": 0.6}, {"measurement": "Binding of serum SARS-yellow to looped/cyclic peptides of protein X4 of SARS-CoV Urbani", "setting": "[1]", "value": 0.9}, {"measurement": "Recognition of the peptide by sera of SARS-CoV infected individuals, and form (linear, looped/cyclic) in which it is recognized", "setting": "[1]", "value": "recognized in looped/cyclic form"}, {"measurement": "Binding of Control Serum Blood-Bank to Looped peptides", "setting": "[2]", "value": 0.7}, {"measurement": "Binding of Control serum Blood-bank to linear peptides", "setting": "[2]", "value": 0.5}, {"measurement": "Binding of Control serum LUMC to linear peptides", "setting": "[2]", "value": 0.5}, {"measurement": "Binding of Control serum LUMC to looped peptides", "setting": "[2]", "value": 0.8}, {"measurement": "Rabbit serum linear peptides", "setting": "[3]", "value": 0.5}, {"measurement": "Rabbit serum looped peptides", "setting": "[3]", "value": 0.5}]}
{"sequence": "SQRVGTDSGFAAYNR", "values": [{"measurement": "Binding of serum 1a to linear peptides of protein M of SARS-CoV Urbani", "setting": "[1]", "value": 0.8}, {"measurement": "Binding of serum 1a to looped/cyclic peptides of protein M of SARS-CoV Urbani", "setting": "[1]", "value": 0.5}, {"measurement": "Binding of serum 1b to linear peptides of protein M of SARS-CoV Urbani", "setting": "[1]", "value": 0.6}, {"measurement": "Binding of serum 1b to looped/cyclic peptides of protein M of SARS-CoV Urbani", "setting": "[1]", "value": 0.4}, {"measurement": "Binding of serum 2 to linear peptides of protein M of SARS-CoV Urbani", "setting": "[1]", "value": 0.4}, {"measurement": "Binding of serum 2 to looped/cyclic peptides of protein M of SARS-CoV Urbani", "setting": "[1]", "value": 0.7}, {"measurement": "Binding of serum 6 to linear peptides of protein M of SARS-CoV Urbani", "setting": "[1]", "value": 0.6}, {"measurement": "Binding of serum 6 to looped/cyclic peptides of protein M of SARS-CoV Urbani", "setting": "[1]", "value": 0.6}, {"measurement": "Binding of serum 37 to linear peptides of protein M of SARS-CoV Urbani", "setting": "[1]", "value": 0.5}, {"measurement": "Binding of serum 37 to looped/cyclic peptides of protein M of SARS-CoV Urbani", "setting": "[1]", "value": 0.2}, {"measurement": "Binding of serum 62 to linear peptides of protein M of SARS-CoV Urbani", "setting": "[1]", "value": 0.4}, {"measurement": "Binding of serum 62 to looped/cyclic peptides of protein M of SARS-CoV Urbani", "setting": "[1]", "value": 0.5}, {"measurement": "Binding of serum London to linear peptides of protein M of SARS-CoV Urbani", "setting": "[1]", "value": 0.4}, {"measurement": "Binding of serum London to looped/cyclic peptides of protein M of SARS-CoV Urbani", "setting": "[1]", "value": 0.2}, {"measurement": "Binding of serum SARS-green to linear peptides of protein M of SARS-CoV Urbani", "setting": "[1]", "value": 0.5}, {"measurement": "Binding of serum SARS-green to looped/cyclic peptides of protein M of SARS-CoV Urbani", "setting": "[1]", "value": 0.4}, {"measurement": "Binding of serum SARS-yellow to linear peptides of protein M of SARS-CoV Urbani", "setting": "[1]", "value": 0.5}, {"measurement": "Binding of serum SARS-yellow to looped/cyclic peptides of protein M of SARS-CoV Urbani", "setting": "[1]", "value": 0.6}, {"measurement": "Binding of Control Serum Blood-Bank to Looped peptides of the protein M of SARS-CoV Urbani", "setting": "[2]", "value": 0.7}, {"measurement": "Binding of Control serum Blood-bank to linear peptides of the protein M of SARS-CoV Urbani", "setting": "[2]", "value": 0.9}, {"measurement": "Binding of Control serum LUMC to linear peptides of the protein M of SARS-CoV Urbani", "setting": "[2]", "value": 1.0}, {"measurement": "Binding of Control serum LUMC to looped peptides of the protein M of SARS-CoV Urbani", "setting": "[2]", "value": 0.6}, {"measurement": "Rabbit serum linear peptides", "setting": "[3]", "value": 0.2}, {"measurement": "Rabbit serum looped peptides", "setting": "[3]", "value": 0.1}]}
